The values that follow come from ChEMBL document CHEMBL1201862, “PubChem BioAssay data set” (2004).

Test in all cases: NCI anticancer screen, dose series, 48 h
Assay [1] has as its system MOLT-4.
Assay [2] relates to SF-539.
The test system of assay [3] is RPMI-8226.
Assay [4] concerns UACC-257.
Assay [5] has as its system A498.
In assay [6] the test system is A549.
Assay [7] relates to SNB-75.
The subject of assay [8] is NCI-H522.
In assay [9] the test system is MDA-MB-435.
Assay [10] concerns PC-3.
Assay [11] relates to NCI/ADR-RES.
The subject of assay [12] is 786-0.
Assay [13] has as its system CCRF-CEM.
Assay [14] concerns HCT-15.
Assay [15] deals with HT-29.
Assay [16] concerns OVCAR-5.
Assay [17] concerns SF-295.
The subject of assay [18] is DU-145.
Assay [19] relates to OVCAR-8.
Assay [20] has as its system UO-31.

SMILES strings stand for the structures.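 How tested: cells in 96-well plates exposed to compound for 48 hours at five concentrations. The concentration for 50% growth inhibition is given as GI50.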 The source made the active and inactive calls. No stated cut-off is given here; in the data, active = GI50 up to about 1.1 µM and inactive = higher.

As for `O=C1C(Cl)=C(N2CCN(CCOCCO)CC2)C(=O)c2ncccc21`, the GI50 is > 10 µM (inactive) in assay [1]; > 10 µM (inactive) in [2]; 7.1 µM (inactive) in assay [3]; > 10 µM (inactive) in assay [4]; > 10 µM (inactive) in [5]; > 10 µM (inactive) in assay [6]. Further, the GI50 was > 10 µM (inactive) in assay [7]; 2.56 µM (inactive) in assay [8]; 2.65 µM (inactive) in [9]; > 10 µM (inactive) in assay [10]; > 10 µM (inactive) in assay [11]; > 10 µM (inactive) in assay [12]. The GI50 in [13] is 0.001 µM (active); in assay [14] it was greater than 10 µM; in assay [15] it was > 10 µM (inactive); in [16], > 10 µM (inactive); in assay [17] it was > 10 µM (inactive); in assay [18] it was > 10 µM (inactive). Moreover, the GI50 in assay [19] was > 10 µM (inactive).

For `CCCC(=O)Nc1ncnc2c1ncn2C1OC2COP(=O)(O)OC2C1OC(=O)CCC` (stereo not given), the GI50 in assay [1] was > 100 µM (inactive); in assay [2] it was 382 µM (inactive); in [3], > 1000 µM (inactive); in assay [4] it was > 100 µM (inactive); in assay [5], 31.9 µM (inactive); in [6] it was > 100 µM (inactive). Moreover, the GI50 in assay [7] was 0.0246 µM (active); in assay [8], > 100 µM (inactive); in assay [9], > 100 µM (inactive); in [10] it was > 100 µM (inactive); in [11] it was > 100 µM (inactive); in assay [12], > 100 µM (inactive). The GI50 is 266 µM (inactive) in assay [13]; 312 µM (inactive) in [20]; greater than 100 µM in [14]; > 100 µM (inactive) in assay [15]; > 100 µM (inactive) in [16]; > 100 µM (inactive) in assay [17]. The GI50 in assay [18] and in assay [19] was > 100 µM (inactive) each time.

On to `O=[N+]([O-])c1ccc(C[S+]([O-])Cc2ccccc2)cc1` (stereo not given), for which the GI50 in assay [1], in assay [2], in assay [3], in [4], in [5] and in assay [6] was > 100 µM (inactive) throughout. The GI50 in assay [7] is 39.9 µM (inactive); in [8], > 100 µM (inactive); in assay [9], > 100 µM (inactive); in assay [10], > 100 µM (inactive); in assay [11], > 100 µM (inactive); in assay [12] it was > 100 µM (inactive). For the same compound, the GI50 was > 100 µM (inactive) in assay [13]; > 100 µM (inactive) in assay [20]; greater than 100 µM in [14]; > 100 µM (inactive) in assay [15]; > 100 µM (inactive) in assay [16]; > 100 µM (inactive) in assay [17]. For the same compound, the GI50 in assay [18] and in assay [19] was > 100 µM (inactive) in each case.

Consider `COc1ccccc1NC(=O)CC(=O)N1N=C(C)C(/N=N/c2ccc(C(=O)O)cc2)C1=O` (stereo not given), for which the GI50 in assay [2] is > 100 µM (inactive); in assay [3], > 100 µM (inactive); in assay [4] it was > 100 µM (inactive); in assay [5] it was > 100 µM (inactive); in [6] it was > 100 µM (inactive); in [7] it was 2.24 µM (inactive). Besides, the GI50 in assay [8], in assay [9], in assay [10], in assay [11], in assay [12] and in [13] was > 100 µM (inactive) each time. For the same compound, the GI50 in assay [20] is > 100 µM (inactive); in [14], greater than 100 µM; in assay [15], 23.8 µM (inactive); in [16] it was > 100 µM (inactive); in [17], > 100 µM (inactive); in [18], > 100 µM (inactive). In [19], the GI50 was > 100 µM (inactive).

Regarding `CCC(c1ccc2cc(O)ccc2c1)C(C)(C)C(=O)O` (stereo not given), the GI50 in [1], in assay [2], in assay [3], in [4], in assay [5] and in assay [6] was > 100 µM (inactive) each time. The GI50 in assay [7], in [8], in assay [9], in assay [10], in assay [11] and in assay [12] was > 100 µM (inactive) in each case. For the same compound, the GI50 in [20] was > 100 µM (inactive); in assay [14], greater than 100 µM; in assay [15], > 100 µM (inactive); in [16], > 100 µM (inactive); in assay [17], > 100 µM (inactive); in assay [18] it was > 100 µM (inactive). Moreover, in assay [19], the GI50 was > 100 µM (inactive).

In the case of `OC(C/C(=N\N1CCCCC1)c1cccs1)(C(F)(F)F)C(F)(F)F`, the GI50 in assay [1], in assay [2], in assay [3], in assay [4], in assay [5] and in [6] was > 10 µM (inactive) each time. Also, the GI50 in assay [7], in [8], in assay [9], in assay [10], in [11] and in assay [12] was > 10 µM (inactive) throughout. Besides, the GI50 is > 10 µM (inactive) in assay [13]; > 10 µM (inactive) in assay [20]; greater than 10 µM in assay [14]; > 10 µM (inactive) in [15]; > 10 µM (inactive) in [17]; > 10 µM (inactive) in [18]. In assay [19], the GI50 is > 10 µM (inactive).

With `Cc1c(C)c2c(c(N)c1C#N)C(=O)N(O)C2=O`, the GI50 in [1], in assay [2], in assay [3], in assay [4], in assay [5] and in [6] was > 100 µM (inactive) each time. Also, the GI50 in assay [7] was 45.2 µM (inactive); in assay [8], > 100 µM (inactive); in assay [9], > 100 µM (inactive); in [10], > 100 µM (inactive); in [11] it was > 100 µM (inactive); in [12], > 100 µM (inactive). The GI50 was > 100 µM (inactive) in [13]; > 100 µM (inactive) in assay [20]; greater than 100 µM in assay [14]; > 100 µM (inactive) in [15]; > 100 µM (inactive) in [16]; > 100 µM (inactive) in assay [17]. The GI50 in assay [18] and in assay [19] was > 100 µM (inactive) each time.

As to `COc1cc2c(c3c1c(=O)c1ccccc1n3C)C=C([N+](=O)[O-])C(C)(C)O2`, the GI50 is 0.0861 µM (active) in assay [1]; 1.36 µM (inactive) in assay [2]; > 31.6 µM (inactive) in assay [3]; < 0.0454 µM (active) in assay [4]; 0.0253 µM (active) in [5]; 0.0247 µM (active) in assay [6]. For the same compound, the GI50 is 13.2 µM (inactive) in [7]; 0.365 µM (active) in assay [8]; 0.0931 µM (active) in [9]; > 100 µM (inactive) in [10]; 2.09 µM (inactive) in [11]; 0.328 µM (active) in [12]. Also, the GI50 was 0.468 µM (active) in [13]; 0.421 µM (active) in [20]; 0.355 µM in assay [14]; 0.522 µM (active) in assay [15]; 0.647 µM (active) in [17]; < 0.0456 µM (active) in [18]. Further, the GI50 in assay [19] is 0.532 µM (active).

For the compound `[N-]=[N+]=NC1C(O)C(CO)OC1n1cnc2c(N)ncnc21` (stereo not given), the GI50 was 9.51 µM (inactive) in assay [1]; 27.9 µM (inactive) in assay [2]; 45.8 µM (inactive) in assay [3]; > 100 µM (inactive) in [4]; 66.8 µM (inactive) in assay [5]; 47.5 µM (inactive) in assay [6]. The GI50 in assay [7] was 36.4 µM (inactive); in assay [8], 65.8 µM (inactive); in assay [9], 82.6 µM (inactive); in assay [10], 74.3 µM (inactive); in assay [11], 27.1 µM (inactive); in [12], 30.8 µM (inactive). Besides, the GI50 was 10.1 µM (inactive) in assay [13]; 36.6 µM (inactive) in assay [20]; greater than 100 µM in assay [14]; 31 µM (inactive) in [15]; > 100 µM (inactive) in assay [16]; 44.1 µM (inactive) in assay [17]. For the same compound, the GI50 in [18] is 3.04 µM (inactive); in assay [19], 37.9 µM (inactive).

Take `Cc1ccc(NCCN(C)C)c2c(=O)c3cc(O)ccc3oc12`: the GI50 in assay [1] was 1.11 µM (active); in assay [2] it was 8.28 µM (inactive); in assay [3], 5.08 µM (inactive); in assay [4] it was 18.3 µM (inactive); in assay [5], 14.9 µM (inactive); in assay [6] it was 6.25 µM (inactive). Moreover, the GI50 is 4.79 µM (inactive) in [7]; 8.15 µM (inactive) in [8]; 12 µM (inactive) in [9]; 11.8 µM (inactive) in assay [10]; 10.6 µM (inactive) in assay [11]; 5.24 µM (inactive) in assay [12]. Moreover, the GI50 in [13] is 2.28 µM (inactive); in assay [20], 9.2 µM (inactive); in assay [14], 9.08 µM; in assay [15], 11.2 µM (inactive); in [16] it was 15.5 µM (inactive); in assay [17], 10.9 µM (inactive). For the same compound, the figures for the GI50 in assay [18] and in assay [19] were 15.1 µM (inactive) and 6.97 µM (inactive), respectively.
